Measurements: patent US7163800B2, “Methods of screening compositions for G protein-coupled receptor desensitization inhibitory activity” (Molecular Devices Corporation, priority 2000, dated 2007)

Tests used:
[1] = biological target: HA-tagged human β2-adrenergic receptor (human) (UniProt P07550)
[2] = biological target: human vasopressin V2 receptor (V2R) (Homo sapiens, UniProt P30518); experiment: arrestin-GFP localization (Fgrains) assay in U20S-V2R/ArrGFP cells, arginine vasopressin stimulated; format: cell-based; conditions: 100 nM arginine vasopressin
Protocol: The assay was carried out using two different “double stable” human osteosarcoma cell (U20S) lines. […] The other cell line (U20S-V2R/ArrGFP) stably expressed V2R and the same arrestin-GFP conjugate.
The two cell lines (U20S-β2AR/ArrGFP and U20S-V2R/ArrGFP) were separately plated at 7000 cells/well on 384 well glass bottom plates. Two plates of U20S-β2AR/ArrGFP cells were prepared and two plates of U20S-V2R/ArrGFP cells were prepared.
Growth media was replaced with serum free media (i.e., Eagle's minimum essential medium (EMEM) buffered with 10 mM HEPES (N-2-Hydroxyethylpiperazine-N′-2-ethanesulfonic acid)) 24 hours after plating of the cells.
Each test compound was solvated using 100% dimethyl sulfoxide (DMSO). Multiple solutions of each compound were prepared at varying concentrations for testing in separate wells of each plate. If needed, the solutions were sonicated and heated to increase solubility. After preparation of the compound solutions, they were shielded from light.
Each of the solutions of varying concentrations of the fifteen compounds was added to a well on each of the four plates. The β2AR RT and V2R RT plates were incubated for 30 minutes at room temperature and atmospheric CO2.
Agonist was then added to each well. […] The β2AR RT and V2R RT plates were incubated for 30 minutes at room temperature and atmospheric CO2.
Each assay was then terminated using 1% paraformaldehyde containing 1 μM DRAQ5 DNA probe to fix the cells. The cells were analyzed using a pre-production model (alpha unit) of the IN Cell Analyzer 3000 (Amersham Biosciences), which is a line scanning, confocal imaging system. The IN Cell Analyzer 3000 was used to quantitate the localization of the arrestin-GFP conjugate for the cells in each well using the Amersham Biosciences granularity analysis GRNO algorithm. This algorithm finds the nucleus of cells and then dilates out a specified distance in which fluorescent spots or “grains” of arrestin-GFP localization are identified based on size and fluorescent intensity. The average of the fluorescent intensity of the identified grains per cell in an acquired image (i.e., Fgrains) was determined for each well on the plates.
The graphs for each compound as well as for the propanolol control are illustrated in FIGS. 7–22.
The curve-fitting program allowed the minimum and maximum values as well as the slope and EC50 values to vary rather than fixing the values to specified or collected values.

[3] = biological target: HA-tagged human β2-adrenergic receptor (β2AR) (Homo sapiens, UniProt P07550); experiment: arrestin-GFP localization (Fgrains) assay in U20S-β2AR/ArrGFP cells, isoproterenol stimulated; conditions: 100 nM isoproterenol
Protocol: Each of the fifteen compounds was separately screened for GPCR desensitization inhibitory activity against HA-tagged human β2-adrenergic receptor (β2AR) and against human vasopressin V2 receptor (V2R). In addition, the effects of temperature and carbon dioxide (CO2) were evaluated with respect to each compound.

[4] = system: β2AR and V2R; conditions: inhibitory activity shown for both β2AR and V2R
From the text: Each of the fifteen compounds was separately screened for GPCR desensitization inhibitory activity against HA-tagged human β2-adrenergic receptor (β2AR) and against human vasopressin V2 receptor (V2R).
As indicated by the Fgrains values for the cells in the Basal and Stimulated control wells, the Fgrains value determined by the IN Cell Analyzer 3000 in this example was functionally a measure of the average extent of desensitization in the cells in each well.

[5] = V2R CO2 plate: 37° C., 5% CO2/95% O2
[6] = V2R RT plate: room temperature, atmospheric CO2
[7] = B2AR CO2 plate: 37° C., 5% CO2/95% O2
[8] = B2AR RT plate: room temperature, atmospheric CO2

Chain of HA-tagged human β2-adrenergic receptor (β2AR) (P07550 whole entry): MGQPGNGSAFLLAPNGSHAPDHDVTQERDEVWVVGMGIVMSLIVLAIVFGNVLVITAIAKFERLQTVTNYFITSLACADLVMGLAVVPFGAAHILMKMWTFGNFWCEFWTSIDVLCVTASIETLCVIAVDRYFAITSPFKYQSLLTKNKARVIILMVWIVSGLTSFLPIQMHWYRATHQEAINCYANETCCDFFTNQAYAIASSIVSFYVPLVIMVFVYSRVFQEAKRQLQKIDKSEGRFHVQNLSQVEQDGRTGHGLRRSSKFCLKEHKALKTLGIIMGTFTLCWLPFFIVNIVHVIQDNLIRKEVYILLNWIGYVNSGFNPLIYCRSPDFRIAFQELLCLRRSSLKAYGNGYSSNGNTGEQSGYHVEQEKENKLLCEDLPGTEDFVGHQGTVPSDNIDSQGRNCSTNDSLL
Chain of human vasopressin V2 receptor (V2R) (P30518 whole entry): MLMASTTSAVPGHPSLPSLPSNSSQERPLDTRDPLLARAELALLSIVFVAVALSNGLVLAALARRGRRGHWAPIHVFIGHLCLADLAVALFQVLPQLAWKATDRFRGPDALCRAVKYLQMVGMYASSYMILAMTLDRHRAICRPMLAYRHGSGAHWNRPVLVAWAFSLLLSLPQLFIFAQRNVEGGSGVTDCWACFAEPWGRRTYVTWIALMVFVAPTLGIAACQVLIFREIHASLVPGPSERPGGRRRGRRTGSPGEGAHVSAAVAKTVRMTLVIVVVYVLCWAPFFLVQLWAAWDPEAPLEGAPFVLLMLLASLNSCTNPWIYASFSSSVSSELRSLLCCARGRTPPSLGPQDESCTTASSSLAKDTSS

“arrestin-GFP conjugate of the Renilla reniformis green fluorescent protein fused in frame to the carboxyl terminus of rat β-arrestin2 (from UniProt P29067)” was tested, and the Fgrains (average fluorescent intensity of identified grains of arrestin-GFP localization per cell), Stimulated against Basal control wells, B2AR CO2 plate [1] was 431 Fgrains.

`CN1CCCC1CCn1cc(C2=C(c3c[nH]c4ccccc34)C(=O)NC2=O)c2ccccc21` (stereo not shown) [Bisindolylmaleimide II] was tested, and the EC50 [2, 5] was 29.2 µM, the “Max Rsp (change between fitted maximum and fitted minimum Fgrains)” value [2, 5] was 420 and the “Min (fitted minimum Fgrains)” value [2, 5] was 159. For the same compound, the pEC50 [2, 5] was 4.5, the “slope of concentration-response curve” value [2, 5] was 1.2 and the EC50 [2, 6] was 35 µM. For the same compound, the “Max Rsp (change between fitted maximum and fitted minimum Fgrains)” value [2, 6] was 576, the “Min (fitted minimum Fgrains)” value [2, 6] was −7 and the pEC50 [2, 6] was 4.5. For the same compound, the “slope of concentration-response curve” value [2, 6] was 1.1, the EC50 [3, 7] was 62.1 µM and the “Max Rsp (change between fitted maximum and fitted minimum Fgrains)” value [3, 7] was 502. The “Min (fitted minimum Fgrains)” value [3, 7] was −70, the pEC50 [3, 7] was 4.2 and the “slope of concentration-response curve” value [3, 7] was 1.7. The EC50 [3, 8] was 87.3 µM, the “Max Rsp (change between fitted maximum and fitted minimum Fgrains)” value [3, 8] was 924 and the “Min (fitted minimum Fgrains)” value [3, 8] was −508. The pEC50 [3, 8] was 4.1, the “slope of concentration-response curve” value [3, 8] was 1.7 and the “indication of non-receptor-specific GPCR desensitization inhibitory activity” value [4] was “non-receptor-specific GPCR desensitization inhibitory activity”.

`Cn1cc(C2=C(c3cn(CCCN)c4ccccc34)C(=O)NC2=O)c2ccccc21` [RO-31-7549] was tested, and the EC50 [2, 5] was 2.7 µM, the “Max Rsp (change between fitted maximum and fitted minimum Fgrains)” value [2, 5] was 357 and the “Min (fitted minimum Fgrains)” value [2, 5] was 240. The pEC50 [2, 5] was 5.6, the “slope of concentration-response curve” value [2, 5] was 1.0 and the EC50 [2, 6] was 3.3 µM. For the same compound, the “Max Rsp (change between fitted maximum and fitted minimum Fgrains)” value [2, 6] was 320, the “Min (fitted minimum Fgrains)” value [2, 6] was 250 and the pEC50 [2, 6] was 5.5. For the same compound, the “slope of concentration-response curve” value [2, 6] was 1.5, the EC50 [3, 7] was 9.4 µM and the “Max Rsp (change between fitted maximum and fitted minimum Fgrains)” value [3, 7] was 243. The “Min (fitted minimum Fgrains)” value [3, 7] was 193, the pEC50 [3, 7] was 5.0 and the “slope of concentration-response curve” value [3, 7] was 1.2. The EC50 [3, 8] was 31.1 µM, the “Max Rsp (change between fitted maximum and fitted minimum Fgrains)” value [3, 8] was 423 and the “Min (fitted minimum Fgrains)” value [3, 8] was 4. For the same compound, the pEC50 [3, 8] was 4.5, the “slope of concentration-response curve” value [3, 8] was 0.8 and the “indication of non-receptor-specific GPCR desensitization inhibitory activity” value [4] was “non-receptor-specific GPCR desensitization inhibitory activity”.
